# Measurements taken from patent US6046219A, “Method for the treatment of conditions mediated by collagen formation together with cell proliferation by application of inhibitors of protein hydroxylation” (Cornell Research Foundation, Inc., priority 1997, dated 2000).
# Entries after “also recorded” stand apart in the source; their conditions may differ.
# Experiments:
# [1] = tested on: human umbilical vein endothelial cells (HUVEC); assay: Endothelial cell proliferation (tritiated thymidine incorporation); format: cell-based; conditions: 24 hours
# Method: Human umbilical vein endothelial cells ("HUVEC") were treated with the specified concentrations of deferiprone (X-axis) for 24 hours prior to evaluating tritiated thymidine (3H-Tdr) incorporation into DNA for 4 hours. The results are expressed per well and the bars at each point reflect the standard error of the mean (S.E.M., n=3). Decreasing 3H-Tdr incorporation would reflect reduced endothelial cells proliferation.
# Endothelial cell proliferation was determined by essentially the same methods previously disclosed for the determination of smooth muscle proliferation. Human umbilical vein endothelial cells ("HUVEC") were isolated and subcultured in Medium 199 containing 15% fetal bovine serum ("FBS"), endothelial cell growth factor ("ECGF", 5 ng/ml), heparin (9 μg/ml), and antibiotics. The cells were plated in 96-well dishes at 1×10^4 cells per well and then allowed to attach for 24 hours. The medium was removed, and the cells were changed to media containing deferiprone at 50, 100, 200, or 500 μM. After 24 hours, tritiated thymidine was added to the wells and allowed to incorporate into the DNA for 4 hours prior to isolation of the nuclear DNA by standard methods. The results are expressed as the counts per minute ("cpm") of radioactivity per well, which is proportional to the rate of DNA synthesis during the 4 hour labelling period.
# protein hydroxylases = assay: Inhibition of protein hydroxylases; format: biochemical; conditions: no data shown
# [2] = target: T1, purified human prolyl 4-hydroxylase (Homo sapiens, UniProt P13674); assay: Assay of purified human prolyl 4-hydroxylase (14CO2 release from 2-oxoglutarate, cell-free); format: biochemical; conditions: for Prolyl 4-hydroxylase ID50 (purified): purified human enzyme, inhibitory dose that gives 50% reduction of the enzyme-mediated reaction, unit assumed
# T1 construct: made in house; host or cells: Spodoptera frugiperda insect cells (baculovirus, co-expression of α- and β-subunits)
# T1 sequence (P13674 18-534): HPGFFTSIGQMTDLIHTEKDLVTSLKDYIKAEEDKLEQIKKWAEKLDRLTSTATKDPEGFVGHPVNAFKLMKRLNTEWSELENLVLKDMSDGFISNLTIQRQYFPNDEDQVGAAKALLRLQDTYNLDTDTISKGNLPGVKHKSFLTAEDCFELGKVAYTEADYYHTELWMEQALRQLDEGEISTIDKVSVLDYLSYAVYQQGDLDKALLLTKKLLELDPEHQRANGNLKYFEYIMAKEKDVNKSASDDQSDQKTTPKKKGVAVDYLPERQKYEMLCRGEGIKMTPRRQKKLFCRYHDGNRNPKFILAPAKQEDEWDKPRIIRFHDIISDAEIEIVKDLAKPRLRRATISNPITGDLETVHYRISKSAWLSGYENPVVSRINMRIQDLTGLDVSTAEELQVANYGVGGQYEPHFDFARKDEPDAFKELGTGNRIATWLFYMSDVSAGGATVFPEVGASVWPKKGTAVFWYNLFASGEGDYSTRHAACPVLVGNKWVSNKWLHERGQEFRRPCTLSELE
# T1 sequence (P07237 18-508 partner): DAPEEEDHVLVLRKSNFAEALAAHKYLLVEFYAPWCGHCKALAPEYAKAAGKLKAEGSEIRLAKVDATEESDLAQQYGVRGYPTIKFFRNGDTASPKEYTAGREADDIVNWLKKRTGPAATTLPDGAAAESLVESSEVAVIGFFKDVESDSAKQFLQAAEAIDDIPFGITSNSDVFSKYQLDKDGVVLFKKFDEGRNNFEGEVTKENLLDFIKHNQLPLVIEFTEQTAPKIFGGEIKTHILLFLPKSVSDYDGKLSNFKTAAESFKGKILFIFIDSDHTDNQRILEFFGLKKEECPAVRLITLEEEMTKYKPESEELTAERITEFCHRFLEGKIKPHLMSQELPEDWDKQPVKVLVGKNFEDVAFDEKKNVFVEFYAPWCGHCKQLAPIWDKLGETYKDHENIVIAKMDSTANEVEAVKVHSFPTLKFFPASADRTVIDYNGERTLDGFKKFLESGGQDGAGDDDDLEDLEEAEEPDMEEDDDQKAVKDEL
# Method: The effect on the enzyme was determined in a cell-free system by measuring the oxidative decarboxylation of its cofactor 2-oxoglutarate via release of radiolabeled carbon dioxide in a standard reaction mixture also containing ascorbate, ferrous sulfate, and unhydroxylated peptide substrate.
# (§1) The inhibitory action of the substances according to the invention, for example on collagen secretion or cell proliferation, can be tested in direct assays of the enzymes mediating the pivotal protein hydroxylations for these biological processes, such as prolyl 4-hydroxylase and deoxyhypusyl hydroxylase. This entails the enzymatic hydroxylation of the appropriate protein precursor, either by the cellular or the purified enzyme, in the presence or absence of compounds of Formulae (I) or (II), with concomitant determination of co-substrate utilization by these enzymes or subsequent isolation of the hydroxylated amino acid and its unhydroxylated precursor. In this manner, the inhibitory potency of any given compound can be measured in the cell-free system, in cell culture, or in tissue, and is expressed as the inhibitory dose that gives a 50% reduction of the enzyme-mediated reaction (ID50). Enzyme is tested in analogy to the method of A. Abbruzzese, H. M. Hanauske-Abel, et al., Biochem. Biophys. Acta, 1077, 159-166 (1991) and of K. Majamaa, H. M. Hanauske-Abel, et al., Eur. J. Biochem. 138, 239-245 (1984), which are hereby incorporated by reference. Table III lists the ID50 values of some of the compounds according to the invention, using purified human prolyl 4-hydroxylase and cellular human deoxyhypusyl hydroxylase as representative protein hydroxylases.
# The inhibiting effect of hydroxypyridones on the collagen-hydroxylating enzyme was studied in a cell-free system.
# Assay of purified human prolyl 4-hydroxylase
# The native α2 β2 -tetrameric enzyme was purified to homogeneity by poly(L-proline) affinity chromatography and DEAE chromatography from the supernatant of Spodoptera frugiperda insect cells cotransfected with recombinant baculovirus transfer vectors for both the human α- and β-subunits. Enzyme activity was determined by trapping of ^14 CO2 released from 2-oxo[1-^14 C][glutarate] according to the procedure of Majamaa, et al., Eur. J. Biochem., 138:239-245 (1984), which is hereby incorporated by reference. Briefly, all incubations were run for 60 minutes at 37° C. in a final volume of 1.0 ml per test sample, containing 0.1 μg enzyme, 0.1 mg heat-denatured (Pro-Pro-Gly)10 ×9 H2 O as hydroxylatable substrate, 0.1 mM 2-oxo[1-^14 C][glutarate] adjusted to 60,000 dpm by mixing with the unlabeled 2-oxoglutarate as cosubstrate, and cofactors (1.6 mM ascorbate, 0.05 mM ferrous sulfate, 0.08 mM dithiothreitol, 2 mg bovine serum albumin, 5 μL catalase). Assays are performed with only one of the active compounds at any given time.
# [3] = target: T2, cellular human deoxyhypusyl hydroxylase (Homo sapiens, UniProt Q9BU89); assay: Cellular human deoxyhypusyl hydroxylase (DOHH assay, 3H-spermidine labeling); format: cell-based; conditions: for Deoxyhypusyl hydroxylase ID50 (cellular): cellular human enzyme, inhibitory dose that gives 50% reduction of the enzyme-mediated reaction, unit assumed
# T2 construct: endogenous in cells; host or cells: cultured human cells (smooth muscle cells, B-lymphocytes)
# T2 sequence (Q9BU89 1-302): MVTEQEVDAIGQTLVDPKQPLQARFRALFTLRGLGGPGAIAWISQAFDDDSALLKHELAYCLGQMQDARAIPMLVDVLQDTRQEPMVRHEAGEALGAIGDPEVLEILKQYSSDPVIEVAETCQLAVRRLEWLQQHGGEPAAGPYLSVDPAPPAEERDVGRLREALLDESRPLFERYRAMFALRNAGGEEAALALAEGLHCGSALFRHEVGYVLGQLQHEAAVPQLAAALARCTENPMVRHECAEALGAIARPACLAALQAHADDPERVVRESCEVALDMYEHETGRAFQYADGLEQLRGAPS
# Source text: as §1
# The inhibiting effect of hydroxypyridones on the eIF-5A-hydroxylating enzyme was studied in cultured human cells (i.e. smooth muscle cells, B-lymphocytes).
# The cellular conversion of the precursor deoxyhypusine to the hydroxylated hypusine in cells was examined, after preincubation with the inhibitor for 60 minutes, by labeling the human cells with ^3 H-spermidine (5 μCi/ml) in 25 cm^2 flasks (1×10^6 cells/flask) for 24 hours prior to cell lysis, precipitation with 10% TCA containing 1 mM each of putrescine, spermidine, and spermine, and hydrolysis in 6 N HCl at 110° C. for 16 hours. The hydrolysate was analyzed for labeled amino acids on an amino acid analyzer by published methods (Park et al., J. Biol. Chem., 257:7217-7222 (1982), which is hereby incorporated by reference). The retention of purified hypusine and deoxyhypusine was determined from standards.
# certain human cells = conditions: Ekblom et al.; cited from earlier work
# [4] = orally active; established characteristics; cited from earlier work
# [5] = tested on: human SMC from fibroproliferative vascular lesions; assay: Cell proliferation: DNA synthesis (3H-thymidine) in SMC; format: cell-based
# Method: The effect of the structural hydroxypyridone analog kojic acid is shown for comparison. Serum-stimulated DNA synthesis in SMC was determined by a 4-hour pulse of ^3 H-thymidine given 20 hours after treatment with L-mimosine and kojic acid (filled symbols). Identically treated, but unlabeled cells cultured in parallel, at that time point were washed and returned to fresh culture media without inhibitor for an additional 20 hours prior to otherwise identical labeling with ^3 H-thymidine (open symbols). Data is expressed as ^3 H-thymidine incorporated per cell to compensate for the reduced cell number in the wake of inhibitor treatment.
# Inhibition of DNA synthesis was examined by semiautomated methods. SMC were plated at 1×10^4 cells/well in 96-well microtiter plates at least 24 hours prior to the assay. Agents were introduced into normal serum-containing growth media for 20 hours before the cells were pulsed with ^3 H-thymidine (1 μCi/ml) for 4 hours. Cells were collected with a cell harvester and the DNA-incorporated label determined by scintillation counting (Betaplate; Wallac, Inc., Gaithersburg, Md.) (n=6 per point).
# HUVEC = assay: Endothelial cell tube formation on Matrigel; format: cell-based, human; conditions: 24 hours
# Method: HUVEC form tubes when plated on Matrigel and this is a commonly used as an in vitro model of capillary formation. In the FIG. 10A, it is shown that untreated HUVEC form capillary-like tubes (ARROW) when placed on Matrigel for 24 hours.
# Endothelial cell tube formation was determined by plating HUVEC on a thick Matrigel (Becton Dickinson Labware) gel at a density of 5×10^4 cells per well of 24 well dish. Deferiprone was incubated with the cells for 30 minutes in solution prior to applying the cells to the Matrigel. The cells were added to the Matrigel-coated well, and, then 4 hours and 24 hours later, the cells were observed and photographed at a reproducible location.
# [6] = target: T3, purified rat deoxyhypusyl hydroxylase (Rattus norvegicus, UniProt Q5PPJ4); assay: DOHH assay, purified rat deoxyhypusyl hydroxylase, conversion of deoxyhypusine-containing eIF-5A precursor; format: biochemical; conditions: unhydroxylated eIF-5A precursor, purified rat enzyme
# T3 construct: probably testis; substrate unhydroxylated eIF-5A precursor
# T3 sequence (Q5PPJ4 1-302): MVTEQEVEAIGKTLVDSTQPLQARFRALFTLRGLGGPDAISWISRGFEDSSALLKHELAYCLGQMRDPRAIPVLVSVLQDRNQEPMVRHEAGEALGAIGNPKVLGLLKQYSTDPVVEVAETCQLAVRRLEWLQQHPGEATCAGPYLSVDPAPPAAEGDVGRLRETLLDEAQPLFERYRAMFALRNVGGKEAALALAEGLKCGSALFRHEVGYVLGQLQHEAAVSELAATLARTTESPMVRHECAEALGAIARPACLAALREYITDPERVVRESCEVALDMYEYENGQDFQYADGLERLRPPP
# Method: The inhibiting effect of a model peptidomimetic, suitable to serve as carrier for hydroxypyridone warheads, on the activity of the purified eIF-5A-hydroxylating enzyme was studied in a cell-free system.
# Enzyme activity was purified and determined as described by Abbruzzese et al., J. Biol. Chem. 261:3085-9 (1986), which is hereby incorporated by reference. Briefly, the enzyme is offered labeled deoxyhypusine-containingeIF-5A precursor. Following standard incubation conditions, the conversion into hypusine residues is measured by chromatographic amino acid separation after protein hydrolysis.
# prolyl hydroxylase = conditions: U.S. Pat. No. 4,937,266; cited from earlier work
compound,measurement,setting,value
"O=c1cc(CO)occ1O [kojic acid, reference compound]",inhibition of endothelial cell proliferation,[1]; FIG. 9,does not inhibit EC proliferation
same,inhibition of protein hydroxylases,protein hydroxylases,does not inhibit protein hydroxylases
CCCn1ccc(=O)c(O)c1C [HK-27],Prolyl 4-hydroxylase ID50 (purified),[2],155 µM
same,Deoxyhypusyl hydroxylase ID50 (cellular),[3],50 µM
C=CCn1ccc(=O)c(O)c1C [HK-16],Prolyl 4-hydroxylase ID50 (purified),[2],150 µM
same,Deoxyhypusyl hydroxylase ID50 (cellular),[3],50 µM
CCOCn1ccc(=O)c(O)c1C [HK-15],Prolyl 4-hydroxylase ID50 (purified),[2],210 µM
same,Deoxyhypusyl hydroxylase ID50 (cellular),[3],60 µM
CCc1c(O)c(=O)ccn1CC [HK-2],Prolyl 4-hydroxylase ID50 (purified),[2],145 µM
same,Deoxyhypusyl hydroxylase ID50 (cellular),[3],50 µM
Cc1ncc(CO)c(C=NNC(=O)c2ccncc2)c1O [pyridoxal isonicotinyl hydrazone],effect on proliferation of certain human cells,certain human cells,stimulates the proliferation
"Cc1c(O)c(=O)ccn1C [HK-1, 1,2-dimethyl-3-hydroxypyrid-4-one]",extraction by the liver from the portal blood,[4],rapidly extracted by the liver from the portal blood
same,inhibition of purified human prolyl 4-hydroxylase,"[2]; cell-free system, FIG. 1",directly inhibit
same,Prolyl 4-hydroxylase ID50 (purified),[2],133 µM
same,non-specific or toxic effects,"[5]; FIGS. 6, 7",did not result from non-specific or toxic effects
same,"reversibility of suppressive effects (collagen secretion, onset of DNA synthesis)",[5]; upon removal of compound,reversible
same,appearance / viability of treated HUVEC on Matrigel,HUVEC; FIG. 10B,remain healthy and viable in appearance
same,formation of capillary-like tubes on Matrigel,"HUVEC; HUVEC, FIG. 10, listed as deferiprone","blocks the formation of tubular structures; also recorded: block the formation of capillary-like structures; also recorded: blocks capillary formation; also recorded: attach and spread, but do not form capillary-like tubes"
same,inhibition of endothelial cell proliferation,"[1]; FIG. 9, listed as deferiprone",blocks the proliferation; also recorded: inhibit endothelial cell proliferation
same,inhibition of deoxyhypusyl hydroxylase,"[3]; FIG. 3, assayed in vitro",directly inhibit
same,Deoxyhypusyl hydroxylase ID50 (cellular),[3],90 µM
NC(CO)C1CCC(=O)NC(CO)C(=O)N(C(Cc2ccccc2)C(=O)O)NC1=O (stereo not drawn) [Mimetic A],deoxyhypusine-to-hypusine conversion / inhibition of purified deoxyhypusyl hydroxylase,[6],only weakly inhibitory
same,deoxyhypusine-to-hypusine conversion / inhibition of purified deoxyhypusyl hydroxylase,[6]; listed as mimetic A,suppressed
CC(C)(CO)[C@@H](O)C(=O)NCCC(=O)NCCSSCCNC(=O)CCNC(=O)[C@H](O)C(C)(C)CO [pantethine],effect on increased prolyl hydroxylase activity in liver with hepatic fibrosis,prolyl hydroxylase,inhibited an increased prolyl hydroxylase activity
CCn1ccc(=O)c(O)c1C [HK-26],Prolyl 4-hydroxylase ID50 (purified),[2],130 µM
same,Deoxyhypusyl hydroxylase ID50 (cellular),[3],58 µM
CCOC(=O)[C@@H](N)Cn1ccc(=O)c(O)c1 [--ethyl ester],Prolyl 4-hydroxylase ID50 (purified),[2],145 µM
